Test results taken from patent publication US20190292521A1, “COMPOSITION FOR PROMOTING GROWTH OF STEM CELLS COMPRISING PHYTOSPHINGOSINE-1-PHOSPHATE OR DERIVATIVES THEREOF, AND COMPOSITION FOR CULTURING MEDIA OF STEM CELLS COMPRISING SAME” (AXCESO BIOPHARMA CO., LTD., priority 2016, published 2019).
Where two headings read alike, the source gives them in different places.

Columns and labels:
Assay type in all cases: cell-based
[1] = system: human-derived adipose stem cells; experiment: Stem cell viability according to concentration of fetal bovine serum (serum-free or low-serum medium); settings: read-out: viability as compared with 10% fetal bovine serum
Procedure: Human-derived adipose stem cells were cultured in DMEM medium having different concentrations of fetal bovine serum at 37° C. under 5% CO2. After culturing for 24 hours, the cells were washed twice with PBS at 37° C. to remove the serum components. Then, the cells were cultured in new DMEM medium containing 1 μM P1P and 1% fetal bovine serum. After 4 days, the absorbance was measured at 450 nm using an Ez-Cytox Cell Viability Assay Kit (Daeil Biotech) to measure the viability of stem cells according the concentration of fetal bovine serum and P1P. For the control group, an experiment was performed under the same conditions as above except that P1P was not included.

[2] = system: human-derived adipose stem cells; experiment: Viability of stem cells with oxidative stress induced by hydrogen peroxide (H2O2); settings: 6 hours after H2O2
Procedure: Human-derived adipose stem cells were cultured in DMEM medium containing 10% fetal bovine serum and 1% penicillin/streptomycin at 37° C. under 5% CO2. After culturing the cells for 24 hours, P1P, cP1P and NAPS-1-P were dissolved in DMSO to a concentration of 2 mM, and appropriately diluted and added to the medium such that the final concentrations were 10 nM, 100 nM, 1000 nM. After 1 hour of culture, 350 μM of H2O2 was added to the stem cells and cultured. After 6 hours, the absorbance was measured at 450 nm using Ez-Cytox, and the effect of P1P and derivatives thereof on the viability of stem cells against oxidative stress was measured. For the control group, an experiment was performed under the same conditions as above except that P1P, cyclic P1P, and NAPS-1-P were not included.

[3] = system: human-derived adipose stem cells; experiment: Growth promoting capacity on human-derived adipose stem cells; settings: cultured for 2 days, different concentrations; optimal effect at 10 nM and 100 nM, FIG. 2
Procedure: (§1) Human mesenchymal stem cells were cultured in DMEM medium (Invitrogen) containing 10% fetal bovine serum and 1% penicillin/streptomycin at 37° C. under 5% CO2, and the medium was changed every 3 days. After culturing the cells for 24 hours, P1P, cyclic P1P, and NAPS-1-P were dissolved in DMSO (Sigma) to a concentration of 2 mM, and appropriately diluted and added to the medium such that the final concentration was 1 μM. The absorbance was measured at 450 nm using Ez-Cytox at 24 hours (1 day), 48 hours (2 days), 120 hours (5 days) and 168 hours (7 days) after the addition, and the proliferation capacity of the stem cells according to P1P, cyclic P1P and NAPS-1 were measured. For the control group, an experiment was performed under the same conditions as above except that P1P, cyclic P1P and NAPS-1-P were not included.
In addition, the growth promoting-capacity of human-derived adipose stem cells was examined.

[4] = system: Human mesenchymal stem cells; experiment: Measurement of stem cell proliferation capacity (Ez-Cytox, absorbance 450 nm); settings: 1 uM; for increase of proliferation effect: cultured for 7 days, vs control without compound; for proliferation of stem cells: human mesenchymal stem cells, FIG. 1
Procedure: as §1

[5] = system: human-derived adipose stem cells; experiment: Osteogenic differentiation capacity (Alizarin Red S staining); settings: osteogenic differentiation medium
Procedure: Human-derived adipose stem cells were cultured in DMEM medium containing 10% fetal bovine serum and 1% penicillin/streptomycin at 37° C. under 5% CO2. After 24 hours of culture, P1P and derivatives thereof were diluted with the medium and added. After 24 hours of culture, the medium was replaced with a differentiation medium and changed with a differentiation medium every 3 days. The cells were cultured in alpha-DEM medium containing 10% fetal bovine serum, 10 nM dexamethasone, 0.2 mM ascorbic acid, 10 mM beta-glycerol phosphate and 1% penicillin/streptomycin at 37° C. under 5% CO2 as a composition for the differentiation medium. After 2 to 4 weeks, the stem cells were fixed and stained with Alizarin Red S. After removing the stem cell culture medium, the cells were washed 3 times with PBS, and after removal of PBS, the cells were fixed using 4% formaldehyde solution for 20 minutes at room temperature. After washing the cells 3 times with PBS, the cells were treated with a 2% Alizarin Red S solution for 20 minutes. […] For the control group, an experiment was performed under the same conditions as above except that P1P, cyclic P1P, and NAPS-1-P were not included.

[6] = fetal bovine serum reduced to 2%

| SMILES | viability at 1 µM [1, 6] | viability at 1 µM ([1]; serum-free medium) | Cell viability (%) by H2O2 treatment (350 uM) ([2]; compound 10 nM) | Cell viability (%) by H2O2 treatment (350 uM) ([2]; compound 100 nM) | Cell viability (%) by H2O2 treatment (350 uM) ([2]; compound 1000 nM) | cell growth / proliferation effect [3] | increase of proliferation effect [4] | proliferation of stem cells [4] | osteogenic differentiation capacity [5] |
| --- | --- | --- | --- | --- | --- | --- | --- | --- | --- |
| CCCCCCCCCCCCCC[C@@H](O)[C@@H](O)[C@H](COP(=O)(O)O)NC(C)=O [NAPS-1-P, N-acetyl phytosphingosine-1-phosphate] | 70 to 80% | ~50% | 75% | 83% | 86% | showed a higher proliferation effect | 2 fold | promoted the proliferation of stem cells to a similar level |  |
| CCCCCCCCCCCCCC[C@@H](O)[C@H]1OP(=O)(O)OC[C@@H]1N [cP1P, O-cyclic P1P] | 70 to 80% | ~50% | 77% | 84% | 86% | showed a higher proliferation effect | 2 fold | promoted the proliferation of stem cells to a similar level | remarkably improved |
